Experimental data as given in US10597388B2, “Pyridazinone herbicides” (FMC CORPORATION, priority 2014, dated 2020).

Assays:
Experiment in all cases: Test D controlled growth environment herbicide test, pre- and postemergence
Assay type in all cases: in vivo
[1] = tested on: field poppy (Papaver rhoeas)
Procedure, shortened: (§1)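 Rating is visual, 0–100 scale (100 = complete control), made against untreated plants 14–21 d after treatment in controlled growth conditions. Postemergence sprays went onto 1- to 4-leaf plants in peat medium; preemergence sprays onto silt loam after sowing; formulation included a surfactant.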

[2] = tested on: oat, wild (wild oat, Avena fatua)
Procedure, shortened: as §1

[3] = tested on: speedwell (bird's-eye speedwell, Veronica persica)
Procedure, shortened: as §1

[4] = tested on: ryegrass, Italian (Italian ryegrass, Lolium multiflorum)
Procedure, shortened: as §1

[5] = tested on: deadnettle (henbit deadnettle, Lamium amplexicaule)
Procedure, shortened: as §1

[6] = tested on: barley, spring (spring barley, Hordeum vulgare)
Procedure, shortened: as §1

[7] = tested on: wheat, spring (spring wheat, Triticum aestivum)
Procedure, shortened: as §1

[8] = tested on: buckwheat, wild (wild buckwheat, Polygonum convolvulus)
Procedure, shortened: as §1

[9] = tested on: radish, wild (wild radish, Raphanus raphanistrum)
Procedure, shortened: as §1

[10] = tested on: Russian thistle (Salsola kali)
Procedure, shortened: as §1

[11] = tested on: windgrass (Apera spica-venti)
Procedure, shortened: as §1

[12] = tested on: canarygrass (Phalaris minor)
Procedure, shortened: as §1

[13] = tested on: oilseed rape (Brassica napus)
Procedure, shortened: as §1

[14] = Postemergence, 31 g ai/ha, scale 0 to 100 (0 no effect, 100 complete control)
[15] = Postemergence, 125 g ai/ha, visual rating on scale 0 (no effect) to 100 (complete control), 14 to 21 d
[16] = Postemergence, 250 g ai/ha, scale 0 to 100 (0 no effect, 100 complete control)
[17] = Preemergence, 62 g ai/ha, scale 0 to 100 (0 no effect, 100 complete control)
[18] = Preemergence, 125 g ai/ha, scale 0 to 100 (0 no effect, 100 complete control)
[19] = Preemergence, 250 g ai/ha, scale 0 to 100, 0 no effect, 100 complete control
[20] = postemergence, 62 g ai/ha, scale 0 to 100, 0 no effect, 100 complete control

Cc1nn(C)c(=O)c(-c2c(C)sc3ccc(Br)cc23)c1O [Compound 22]
Field Poppy plant response rating [1, 14]: 75
Plant response rating, Field Poppy [1, 15]: 100
Plant response rating, Field Poppy [1, 16]: 100
Plant response rating (scale of 0 to 100), Field Poppy ([1]; Preemergence, 31 g ai/ha): 0
Plant response rating, Field Poppy [1, 17]: 0
Plant response rating, Field Poppy [1, 18]: 100
Plant response rating, Field Poppy [1, 19]: 100
Plant response rating, Field Poppy [1, 20]: 85
Oat, Wild plant response rating [2, 14]: 65
Plant response rating, Oat, Wild [2, 15]: 85
Plant response rating, Oat, Wild [2, 16]: 100
Plant response rating (scale of 0 to 100), Oat, Wild ([2]; Preemergence, 31 g ai/ha): 30
Plant response rating, Oat, Wild [2, 17]: 55
Plant response rating, Oat, Wild [2, 18]: 70
Plant response rating, Oat, Wild [2, 19]: 95
Plant response rating, Oat, Wild [2, 20]: 85
Speedwell plant response rating [3, 14]: 60
Plant response rating, Speedwell [3, 15]: 65
Plant response rating, Speedwell [3, 16]: 100
Plant response rating (scale of 0 to 100), Speedwell ([3]; Preemergence, 31 g ai/ha): 0
Plant response rating, Speedwell [3, 17]: 0
Plant response rating, Speedwell [3, 18]: 50
Plant response rating, Speedwell [3, 19]: 100
Plant response rating, Speedwell [3, 20]: 60
Ryegrass, Italian plant response rating [4, 14]: 75
Plant response rating, Ryegrass, Italian [4, 15]: 85
Plant response rating, Ryegrass, Italian [4, 16]: 90
Plant response rating (scale of 0 to 100), Ryegrass, Italian ([4]; Preemergence, 31 g ai/ha): 85
Plant response rating, Ryegrass, Italian [4, 17]: 90
Plant response rating, Ryegrass, Italian [4, 18]: 100
Plant response rating, Ryegrass, Italian [4, 19]: 100
Plant response rating, Ryegrass, Italian [4, 20]: 80
Deadnettle plant response rating [5, 14]: 10
Plant response rating, Deadnettle [5, 15]: 45
Plant response rating, Deadnettle [5, 16]: 70
Plant response rating (scale of 0 to 100), Deadnettle ([5]; Preemergence, 31 g ai/ha): 0
Plant response rating, Deadnettle [5, 17]: 0
Plant response rating, Deadnettle [5, 18]: 15
Plant response rating, Deadnettle [5, 20]: 10
Plant response rating, Barley, Spring [6, 14]: 0
Plant response rating, Barley, Spring [6, 15]: 15
Plant response rating, Barley, Spring [6, 16]: 15
Plant response rating (scale of 0 to 100), Barley, Spring ([6]; Preemergence, 31 g ai/ha): 0
Plant response rating, Barley, Spring [6, 17]: 0
Plant response rating, Barley, Spring [6, 18]: 0
Barley, Spring plant response rating [6, 19]: 0
Plant response rating, Barley, Spring [6, 20]: 0
Wheat, Spring plant response rating [7, 14]: 5
Plant response rating, Wheat, Spring [7, 15]: 10
Plant response rating, Wheat, Spring [7, 16]: 15
Plant response rating (scale of 0 to 100), Wheat, Spring ([7]; Preemergence, 31 g ai/ha): 0
Plant response rating, Wheat, Spring [7, 17]: 0
Plant response rating, Wheat, Spring [7, 18]: 10
Plant response rating, Wheat, Spring [7, 19]: 25
Plant response rating, Wheat, Spring [7, 20]: 10
Buckwheat, Wild plant response rating [8, 14]: 90
Plant response rating, Buckwheat, Wild [8, 15]: 100
Plant response rating, Buckwheat, Wild [8, 16]: 100
Plant response rating (scale of 0 to 100), Buckwheat, Wild ([8]; Preemergence, 31 g ai/ha): 20
Plant response rating, Buckwheat, Wild [8, 17]: 20
Plant response rating, Buckwheat, Wild [8, 18]: 85
Plant response rating, Buckwheat, Wild [8, 19]: 95
Plant response rating, Buckwheat, Wild [8, 20]: 98
Radish, Wild plant response rating [9, 14]: 85
Plant response rating, Radish, Wild [9, 15]: 100
Plant response rating, Radish, Wild [9, 16]: 85
Plant response rating (scale of 0 to 100), Radish, Wild ([9]; Preemergence, 31 g ai/ha): 0
Plant response rating, Radish, Wild [9, 17]: 25
Plant response rating, Radish, Wild [9, 18]: 70
Plant response rating, Radish, Wild [9, 19]: 80
Plant response rating, Radish, Wild [9, 20]: 75
Russian Thistle plant response rating [10, 14]: 65
Plant response rating, Russian Thistle [10, 15]: 75
Plant response rating, Russian Thistle [10, 16]: 85
Plant response rating (scale of 0 to 100), Russian Thistle ([10]; Preemergence, 31 g ai/ha): 0
Plant response rating, Russian Thistle [10, 17]: 0
Plant response rating, Russian Thistle [10, 18]: 0
Plant response rating, Russian Thistle [10, 19]: 20
Plant response rating, Russian Thistle [10, 20]: 70
Windgrass plant response rating [11, 14]: 15
Plant response rating, Windgrass [11, 15]: 35
Plant response rating, Windgrass [11, 16]: 55
Plant response rating (scale of 0 to 100), Windgrass ([11]; Preemergence, 31 g ai/ha): 0
Plant response rating, Windgrass [11, 17]: 20
Plant response rating, Windgrass [11, 18]: 70
Plant response rating, Windgrass [11, 19]: 80
Plant response rating, Windgrass [11, 20]: 20
Canarygrass plant response rating [12, 14]: 20
Plant response rating, Canarygrass [12, 15]: 40
Plant response rating, Canarygrass [12, 16]: 65
Plant response rating (scale of 0 to 100), Canarygrass ([12]; Preemergence, 31 g ai/ha): 25
Plant response rating, Canarygrass [12, 17]: 35
Plant response rating, Canarygrass [12, 18]: 85
Plant response rating, Canarygrass [12, 19]: 90
Plant response rating, Canarygrass [12, 20]: 35
Oilseed Rape plant response rating [13, 14]: 30
Plant response rating, Oilseed Rape [13, 15]: 95
Plant response rating, Oilseed Rape [13, 16]: 100
Plant response rating (scale of 0 to 100), Oilseed Rape ([13]; Preemergence, 31 g ai/ha): 0
Plant response rating, Oilseed Rape [13, 17]: 0
Plant response rating, Oilseed Rape [13, 18]: 0
Plant response rating, Oilseed Rape [13, 19]: 75
Plant response rating, Oilseed Rape [13, 20]: 30

Cc1ccc2ccccc2c1-c1c(O)c(Br)nn(C)c1=O [Compound 23]
Plant response rating, Field Poppy [1, 15]: 100
Plant response rating, Field Poppy [1, 16]: 100
Plant response rating, Field Poppy [1, 20]: 100
Plant response rating, Oat, Wild [2, 15]: 95
Plant response rating, Oat, Wild [2, 16]: 95
Plant response rating, Oat, Wild [2, 20]: 75
Plant response rating, Speedwell [3, 15]: 75
Plant response rating, Speedwell [3, 16]: 95
Plant response rating, Speedwell [3, 20]: 100
Plant response rating, Ryegrass, Italian [4, 15]: 85
Plant response rating, Ryegrass, Italian [4, 16]: 85
Plant response rating, Ryegrass, Italian [4, 20]: 80
Plant response rating, Deadnettle [5, 15]: 75
Plant response rating, Deadnettle [5, 16]: 85
Plant response rating, Deadnettle [5, 20]: 65
Plant response rating, Barley, Spring [6, 15]: 25
Plant response rating, Barley, Spring [6, 16]: 30
Plant response rating, Barley, Spring [6, 20]: 15
Plant response rating, Wheat, Spring [7, 15]: 60
Plant response rating, Wheat, Spring [7, 16]: 60
Plant response rating, Wheat, Spring [7, 20]: 50
Plant response rating, Buckwheat, Wild [8, 15]: 100
Plant response rating, Buckwheat, Wild [8, 16]: 100
Plant response rating, Buckwheat, Wild [8, 20]: 100
Plant response rating, Radish, Wild [9, 15]: 100
Plant response rating, Radish, Wild [9, 16]: 100
Plant response rating, Radish, Wild [9, 20]: 75
Plant response rating, Russian Thistle [10, 15]: 75
Plant response rating, Russian Thistle [10, 16]: 80
Plant response rating, Russian Thistle [10, 20]: 75
Plant response rating, Windgrass [11, 15]: 75
Plant response rating, Windgrass [11, 16]: 85
Plant response rating, Windgrass [11, 20]: 70
Plant response rating, Canarygrass [12, 15]: 85
Plant response rating, Canarygrass [12, 16]: 90
Plant response rating, Canarygrass [12, 20]: 75
Plant response rating, Oilseed Rape [13, 15]: 65
Plant response rating, Oilseed Rape [13, 16]: 85
Plant response rating, Oilseed Rape [13, 20]: 60
